Assay results published in patent publication US7084141B2, “Inhibitors of macrophase migration inhibitory factor and methods for identifying the same” (Avanir Pharmaceuticals, priority 2001, dated 2006).
Where two headings read alike, the source gives them in different places.

Legend:
[1] = system: BALB/c mice sensitized with β-D-galactosamine; assay type: in vivo, mouse
[2] = target: T1, MIF produced by THP-1 cells (Homo sapiens, UniProt P14174); assay: ELISA of immunoreactive MIF from LPS stimulated THP-1 cells treated with compound; assay type: cell-based
T1 construct: a test cell may express the MIF naturally (e.g., THP-1 cells); endogenous in cells; host or cells: THP-1 cells stimulated with LPS
T1 sequence (P14174 2-115 limits assumed): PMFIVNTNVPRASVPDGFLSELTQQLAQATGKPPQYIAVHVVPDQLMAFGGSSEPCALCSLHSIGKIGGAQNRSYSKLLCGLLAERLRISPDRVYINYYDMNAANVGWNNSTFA
Experimental: Alternatively, ELISA may be preferred to detect and quantify the amount of MIF in cell supernatants. ELISA is preferred for detection in high throughput screening. Briefly, 96-well plates are coated with an anti-MIF antibody or anti-tag antibody, washed, and blocked with 2% BSA. Cell supernatant is then added to the wells. Following incubation and washing, a second antibody (e.g., to MIF) is added. The second antibody may be coupled to a label or detecting reagent, such as an enzyme or to biotin. Following further incubation, a developing reagent is added and the amount of MIF determined using an ELISA plate reader. The developing reagent is a substrate for the enzyme coupled to the second antibody (typically an anti-isotype antibody) or for the enzyme coupled to streptavidin. Suitable enzymes are well known in the art and include horseradish peroxidase, which acts upon a substrate (e.g., ABTS) resulting in a colorimetric reaction. It is recognized that rather than using a second antibody coupled to an enzyme, the anti-MIF antibody may be directly coupled to the horseradish peroxidase, or other equivalent detection reagent. If desired, cell supernatants may be concentrated to raise the detection level. Further, detection methods, such as ELISA and the like may be employed to monitor intracellular as well as extracellular levels of MIF. When intracellular levels are desired, a cell lysate is preferred. When extracellular levels are desired, media can be screened.
In another experiment (FIG. 2), varying concentrations of five different inhibitor analogs were added to LPS stimulated THP-1 cells and allowed to incubate overnight. The following day the amount of immunoreactive MIF detected was evaluated by ELISA. Compound 7e inhibited the ability of the antibody to recognize MIF in a dose dependent fashion with an ED50 of 2 μM, similar to the response obtained with analogs compound 7b and compound 7d.
In a further experiment (FIG. 3), the ability of compound 7e to decrease the immunoreactivity of MIF produced by THP-1 cells was determined. THP-1 cells were treated with 10 μg/ml of LPS and 10 μM of compound 7e was added at various times post-LPS stimulation and immunoreactivity monitored with an anti-MIF monoclonal. […] Thus, this experiment measures the activity of compounds or buffer alone controls on MIF detection when the compounds are initially added at various times to cell cultures and then the corresponding conditioned media samples are processed in a time dependent fashion thereafter.

serum MIF = assay: Collagen induced arthritis model, serum MIF (ELISA); assay type: in vivo, mouse; conditions: day 74, compared to untreated CIA samples
Experimental: (§1) In another experiment, fifteen DBA/1J mice, age 10–12 weeks were immunized on day 0 at the base of the tail with bovine collagen type II (CII 100 μg), emulsified in Freunds complete adjuvant (FCA; GibcoBRL). On day 21, a second dose of collagen was administered via the same route, emulsified in Freunds incomplete adjuvant. On day 28 the mice were injected subcutaneously with 100 μg of LPS (055:B5). On day 71 the mice were injected i.p. with 40 μg LPS (0111:B4). Groups and treatment protocol were the same as described as above. On day 74 blood samples were collected and cytokines were measured.

[3] = target: T1, MIF produced by THP-1 cells; assay: High throughput screening ELISA for MIF inhibitors (THP-1 supernatant / pre-conditioned media incubated with inhibitor); assay type: binding; conditions: absence of cells, 30 minutes at 37° C.
Experimental: Alternatively, ELISA may be preferred to detect and quantify the amount of MIF in cell supernatants. ELISA is preferred for detection in high throughput screening. Briefly, 96-well plates are coated with an anti-MIF antibody or anti-tag antibody, washed, and blocked with 2% BSA. Cell supernatant is then added to the wells. Following incubation and washing, a second antibody (e.g., to MIF) is added. The second antibody may be coupled to a label or detecting reagent, such as an enzyme or to biotin. Following further incubation, a developing reagent is added and the amount of MIF determined using an ELISA plate reader. […]
In the previous experiment (FIG. 3), the ability of compound 7e to modulate antibody binding to MIF protein was analyzed in the presence of LPS-stimulated THP1 cells. […] Six hours later, the conditioned media was removed, clarified of cell debris and the amount of MIF determined to be 22 ng/ml. […] The level of detectable MIF was then determined by ELISA using the monoclonal anti-MIF antibody for detection. […]
The high throughput screening assay for MIF inhibitors is performed in a 96-well format using MIF produced by THP-1 cells and is performed as follows. […] The amount of MIF is calculated by interpolation from an MIF standard curve.

serum TNF-α = assay: Collagen induced arthritis model, serum TNF-α (ELISA); assay type: in vivo, mouse; conditions: day 74, compared to untreated CIA samples
Experimental: as §1

Cn1c(=O)c([N+](=O)[O-])c(N2CCN(C(=O)c3ccco3)CC2)c2ccccc21 [compound 7e]
survival at 12 hours ([1]; 1 mg/kg LPS, 20 mg/kg compound, neutralized by 300 μg/kg human recombinant MIF): significantly more (p<0.01) mice survive
75% Animal Death ([1]; LPS Dosage 0.1 mg/kg): >100 h
75% Animal Death ([1]; LPS Dosage 0.5 mg/kg): >100 h
75% Animal Death ([1]; LPS Dosage 2 mg/kg): >100 h
75% Animal Death ([1]; LPS Dosage 5 mg/kg): 32.0 h
75% Animal Death ([1]; LPS Dosage 10 mg/kg): 18.0 h
75% Animal Death ([1]; LPS Dosage 40 mg/kg): 11.6 h
survival ([1]; lethal dose of LPS (2, 5 and 10 mg/kg), 20 mg/kg i.p., control 6%, p=0.0004): 47%
immunoreactivity of MIF with anti-MIF monoclonal ([2]; 10 μM added at various times post-LPS (10 μg/ml)): immunoreactivity is rapidly lost
EC50 ([2]; LPS stimulated THP-1 cells, incubated overnight, read-out: ED50, inhibition of the ability of the antibody to recognize MIF (ELISA)): 2000 nM
serum MIF levels (serum MIF): reduced serum MIF levels
MIF specific ELISA signal in pre-conditioned media [3]: rapid loss of MIF specific ELISA signal
serum TNF-α levels (serum TNF-α): more significant inhibition of serum TNF-α levels
